What was measured:
[1] = test system: Sphaerotheca fuliginea; experiment: Spaerotheca test (cucumber)/protective; assay type: in vivo; details: protective, application rate 750 g/ha, evaluation 7 days after inoculation
Protocol: Spaerotheca Test (Cucumber)/Protective • Solvent: 49 parts by weight of N,N-dimethylformamide • Emulsifier: 1 part by weight of alkylaryl polyglycol ether To produce a suitable preparation of active compound, 1 part by weight of active compound is mixed with the stated amounts of solvent and emulsifier and the concentrate is diluted with water to the desired concentration. To test for protective activity, the young cucumber plants are sprayed with the active compound preparation at the application rate indicated. 1 day after treatment, the plants are inoculated with a spore suspension of Sphaerotheca fuliginea. The plants are then placed in a greenhouse at a temperature of 23° C. and at a relative humidity of 70%. Evaluation is made 7 days after inoculation. 0% denotes an efficacy corresponding to that of the control, while an efficacy of 100% denotes that no infestation is observed.

[2] = log P by HPLC; assay type: physicochemical; details: HPLC, gradient method, acetonitrile/0.1% aqueous phosphoric acid; EEC directive 79/831 Annex V. A8
[3] = test system: Puccinia recondita; experiment: Puccinia test (wheat)/protective; assay type: in vivo; details: protective, application rate 500 g/ha, evaluation 10 days after inoculation
Protocol: Puccinia Test (Wheat)/Protective • Solvent: 25 parts by weight of N,N-dimethylacetamide • Emulsifier: 0.6 part by weight of alkylaryl polyglycol ether To produce a suitable preparation of active compound, 1 part by weight of active compound is mixed with the stated amounts of solvent and emulsifier and the concentrate is diluted with water to the desired concentration. To test for protective activity, the young plants are sprayed with the active compound preparation at the application rate indicated. After the spray coating has dried on, the plants are sprayed with a conidia suspension of Puccinia recondita. The plants spend 48 hours at 20° C. and 100% relative humidity in an incubation cabin. The plants are then placed in a greenhouse at a temperature of about 20° C. and a relative humidity of 80% in order to promote the development of rust pustules. Evaluation is made 10 days after inoculation. 0% denotes an efficacy corresponding to that of the control, while an efficacy of 100% denotes that no infestation is observed.

- chromatographic logP [2]: 3.94
Compound: C[C@H](Nc1c(-c2c(F)cc(F)cc2F)c(Cl)nc2nc(C(F)(F)F)nn12)C(F)(F)F [Example 3]
- Efficacy in % [1]: 93%
- Efficacy in % [3]: 100%

Reference: patent US7186831B2, “5-halo-2-alkyl[1,2,4]triazolo[1,5-a]pyrimidin-7-amines” (priority 2001, dated 2007)
